# System: F-actin in MSCs
# Test: dSTORM super-resolution imaging and DBSCAN clustering of F-actin
# Type: cell-based
# Conditions: CK869 treatment for 2 hours
# Experimental: Sample Preparation for Imaging of F-Actin in Cells on Hydrogels. To prepare samples for F-actin imaging, glass bottom dishes (No 0., 35 mm; MatTek) were silanized, and a thin layer of PEG-DA hydrogel with varied elasticity was formed as described above. After cell seeding on hydrogels and culturing cells in the presence of DMSO or CK869, cells were permeabilized with 0.0015% saponin (Sigma) in a cytoskeleton buffer (10 mM MES, pH 6.0, 150 mM NaCl, 5 mM EGTA, 5 mM glucose, and 5 mM MgCl2) for 4 minutes at room temperature. The samples were then washed with the cytoskeleton buffer 3 times and fixed with 4% paraformaldehyde in the cytoskeleton buffer for 20 minutes at room temperature. […]
# Super-Resolution Imaging of F-actin. […] 50,000 images were recorded for each cell in each condition; after rejecting overtly dense/bleached images approx. 30,000 images were analyzed in each cell/condition for localization detection in post-processing using ThunderSTORM (ImageJ), with the following settings in brief: wavelet filtering (B-spline order 3, scale 2); integrated Gaussian fitting (radius: 3 pixels, initial sigma: 1.6 pixels); local maximum with 8-neighborhood; camera pixel size 160 nm. […]
# Nanoscale Clustering Analysis of F-actin. […] The percentage of F-actin localizations that belong to each cluster group per cell was then quantified and used for statistical analysis.
compound,measurement,value
COc1ccc(N2C(=O)CSC2c2cccc(Br)c2)c(OC)c1 (stereo not shown) [CK869],distribution of F-actin clusters,did not alter the distribution of different F-actin clusters on both substrates
